The results in this text go back to ChEMBL document CHEMBL1145714, “Activity of Parthenolide at 5HT2A receptors” (J Nat Prod, 1997).

Test [1] concerns the target T1, 5-hydroxytryptamine receptor 2A (Rattus norvegicus, UniProt P14842). The experiment in a line: Displacement of [3H]ketanserin from 5HT2A receptor in rat brain membrane. It counts as cell membranes.
The target in test [2] is T1, 5-hydroxytryptamine receptor 2A. Nature of the test: Displacement of [3H]ketanserin from rat 5HT2A receptor expressed in mouse NIH3T3 cells. It counts as cell-based.
Test [3] is described as follows: Displacement of [3H]ketanserin from 5HT2A receptor in rabbit cerebral cortex membrane. The format is cell membranes, Oryctolagus cuniculus.

T1 sequence (P14842 whole entry): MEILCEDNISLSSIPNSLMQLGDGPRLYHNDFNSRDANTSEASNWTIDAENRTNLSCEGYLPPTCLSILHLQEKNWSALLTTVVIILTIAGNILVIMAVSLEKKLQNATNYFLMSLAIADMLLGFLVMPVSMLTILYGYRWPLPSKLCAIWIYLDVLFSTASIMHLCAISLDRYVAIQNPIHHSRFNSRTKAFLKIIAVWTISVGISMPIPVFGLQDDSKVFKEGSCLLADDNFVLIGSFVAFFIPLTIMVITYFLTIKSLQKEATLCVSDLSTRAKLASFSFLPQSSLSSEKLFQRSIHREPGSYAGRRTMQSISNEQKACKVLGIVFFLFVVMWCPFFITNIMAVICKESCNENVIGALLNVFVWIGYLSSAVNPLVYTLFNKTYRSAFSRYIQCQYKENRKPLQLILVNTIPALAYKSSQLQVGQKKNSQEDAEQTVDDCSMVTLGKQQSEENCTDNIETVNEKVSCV

Consider `C=C1C(=O)O[C@@H]2C3O[C@]3(C)CC/C=C(\C)CC[C@@H]12` (some centres undefined), for which the inhibition constant (Ki) in test [1] turned out to be 250 µM; in test [2] it was 100 µM; in test [3] it was 230 µM.

As for `CN1C[C@@H](NS(=O)(=O)N(C)C)C[C@@H]2c3cccc4c3c(cn4C)C[C@H]21` [MESULERGINE], the Ki in test [3] was determined as 0.0083 µM.
